Results as given in patent US6143724A, “2-fluorofucosyl-N-aroylglucosamine derivatives, intermediates, therefor, and processes for producing these” (Daikin Industries, Ltd., priority 1997, dated 2000).
“Also recorded” adds a separate entry of the source.

Columns and labels:
P selectin = biological target: T1, P selectin (Homo sapiens, UniProt P16109); conditions: H. Kondo et al., J. Med. Chem. 39, 1339 (1996); cited from earlier work
T1 sequence (P16109 42-830): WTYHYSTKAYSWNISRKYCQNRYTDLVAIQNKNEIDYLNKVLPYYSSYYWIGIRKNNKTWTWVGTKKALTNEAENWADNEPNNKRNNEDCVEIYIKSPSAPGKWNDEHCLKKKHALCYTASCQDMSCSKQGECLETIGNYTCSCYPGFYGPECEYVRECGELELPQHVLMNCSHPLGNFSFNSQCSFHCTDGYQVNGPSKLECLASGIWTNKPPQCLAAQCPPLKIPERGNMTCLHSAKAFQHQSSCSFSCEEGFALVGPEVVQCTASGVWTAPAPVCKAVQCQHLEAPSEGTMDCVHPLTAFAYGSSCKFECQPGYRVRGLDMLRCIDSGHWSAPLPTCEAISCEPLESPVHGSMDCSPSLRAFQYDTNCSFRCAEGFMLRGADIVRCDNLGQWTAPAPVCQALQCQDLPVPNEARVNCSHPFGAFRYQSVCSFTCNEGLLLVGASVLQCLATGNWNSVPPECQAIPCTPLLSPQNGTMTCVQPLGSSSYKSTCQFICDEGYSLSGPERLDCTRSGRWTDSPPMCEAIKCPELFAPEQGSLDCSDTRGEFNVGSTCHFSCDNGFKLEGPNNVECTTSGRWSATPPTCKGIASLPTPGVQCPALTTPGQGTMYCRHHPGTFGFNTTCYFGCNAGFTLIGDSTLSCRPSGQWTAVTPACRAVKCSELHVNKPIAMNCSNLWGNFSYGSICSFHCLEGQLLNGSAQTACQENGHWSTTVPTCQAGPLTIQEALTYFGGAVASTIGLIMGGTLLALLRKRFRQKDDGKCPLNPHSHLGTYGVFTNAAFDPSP

selectins = conditions: cited from earlier work
α-fucosidase = assay: Evaluation of metabolic stability of sialyl Lewis X derivatives to α-fucosidase (TLC spot densitometry); format: in vitro ADME; conditions: for Spot Area: 28° C.
Method: The metabolic stability of various sialyl Lewis X derivatives to α-fucosidase was assayed. The various sialyl Lewis X derivatives which were used in Example [(2F-Fuc-t-Bu) SLcXOSE], Comparative Example 1 (SLeX Ganglioside), and Comparative Example 2 [(2F-Fuc) SLeX Ganglioside] are shown in the following structural formulas. Herein, the compound used in the present Example is the compound represented by said structural formula (β) obtained in said Example 11. [drawing 48] After […] of each sialyl Lewis X derivative was dissolved in 0.1 mL of dist. water, 0.1 mL of ammonium sulfate suspension of α-fucosidase (made by Wako Chemicals: 2 units or more/mg protein) was added to this solution at 28° C., then the reaction solution was charged on a silica gel TLC plate 5715 (made by Merck Company) at every reaction time course. After developing up to 2 cm using developing solvents (n-butanol:acetic acid:water=8:5:4), this was soaked in an aqueous solution of molybdenum phosphate/phosphoric acid/sulfuric acid mixture, and heated to color. The Rf values (moving ratio) on the TLC plate of products decomposed by α-fucosidase and each sialyl Lewis X derivative (substrate) were as follows.
Further, it was confirmed from the mass spectrum that each sialyl Lewis X derivative is decomposed by α-fucosidase, and the corresponding derivatives from which the fucose moiety was removed were produced as respective decomposed products. Further, as shown in following Table 1, the residual rates of the individual sialyl Lewis X derivatives were calculated from each spot area (hereinafter, sometimes referred to merely as the area) after each reaction time course as follows. Herein, each area was measured using a densitometer (software: VILBER LOURMAT BIOID V 6.31a): Residual rate of sialyl Lewis X derivative=(substrate area)/(total area of substrate area plus decomposed product area).

[1] = test system: acute inflammation of the lung induced by cobra toxin; conditions: rats, Mulligan et al., Nature 364, 149 (1993); cited from earlier work
[2] = time course 0 min after addition of α-fucosidase
[3] = time course 0.5 min after addition of α-fucosidase, * = color on the TLC completely disappeared
[4] = time course 1.0 min after addition of α-fucosidase

SMILES	stability against / resistance to decomposition by α-fucosidase (in words, from FIG. 1) (α-fucosidase)	Spot Area (α-fucosidase; [2]) [cm^2]	Spot Area (α-fucosidase; [3]) [cm^2]	Spot Area (α-fucosidase; [4]) [cm^2]	other results
CC(=O)NC1COC(CO)C(OC2OC(CO)C(O)C(OC3(C(=O)O)CC(O)C(NC(C)=O)C(C(O)C(O)CO)O3)C2O)C1OC1OC(C)C(O)C(O)C1O (centres unmarked) [structural formula (V)]	–	–	–	–	adhesion-inhibitory activity to P selectin relative to the sialyl Lewis X glycoside of Structural Formula (III) (P selectin): 20 times
CCCCCCCCCCCCCCC(CCCCCCCCCCCCCC)CO[C@@H]1O[C@H](CO)[C@@H](O[C@@H]2O[C@H](CO)[C@H](O)[C@H](OS(=O)(=O)O)[C@H]2O)[C@H](O[C@@H]2O[C@@H](C)[C@@H](O)[C@@H](O)[C@@H]2O)[C@H]1NC(C)=O [GSC-150]	–	–	–	–	selectin adhesion-inhibitory activity (in words) (selectins): powerful selectin blocker
CCCCCCCCCCCCC/C=C/[C@@H](O)[C@H](CO[C@@H]1O[C@H](CO)[C@@H](O[C@@H]2O[C@H](CO)[C@H](O)[C@H](O[C@@H]3O[C@H](CO)[C@@H](O[C@@H]4O[C@H](CO)[C@H](O)[C@H](O[C@]5(C(=O)O)C[C@H](O)[C@@H](NC(C)=O)[C@H]([C@H](O)[C@H](O)CO)O5)[C@H]4O)[C@H](O[C@@H]4O[C@@H](C)[C@@H](O)[C@@H](O)[C@@H]4F)[C@H]3NC(C)=O)[C@H]2O)[C@H](O)[C@H]1O)NC(=O)CCCCCCCCCCCCCCCCCCCCCCC [Comparative Example 2]	weak resistance to decomposition	1.0	0.36	0.30	–
CC(=O)NC1C(O)CC(OC2C(O)C(CO)OC(OC3C(CO)OC(O)C(NC(C)=O)C3OC3OC(C)C(O)C(O)C3O)C2O)(C(=O)O)OC1C(O)C(O)CO (centres unmarked) [structural formula (III)]	–	–	–	–	acute inflammation of the lung [1]: reduced
CC(=O)NC1C(O)CC(OC2C(O)C(CO)OC(OC3C(CO)OC(OC4C(O)C(CO)OC(OC5C(CO)OC(OCC[Si](C)(C)C)C(O)C5O)C4O)C(NC(=O)c4ccc(C(C)(C)C)cc4)C3OC3OC(C)C(O)C(O)C3F)C2O)(C(=O)O)OC1C(O)C(O)CO [Example, 2-(trimethylsilyl)ethyl O-(5-acetamide-3,5-dideoxy-D-glycero-α-D-galacto-2-nunolopyranosylonic acid)-(2→3)-O-β-D-galactopyranosyl-(1→4)-O-[(2-deoxy-2-fluoro-α-L-fucopyranosyl)-(1→3)]-O-[(2-deoxy-2-(4-t-butylbenzamide)-β-D-glucopyranosyl)]-(1→3)-(O-β-D-galactopyranosyl)-(1→4)-β-D-glucopyranoside]	excellent in stability against α-fucosidase; also recorded: strongly resistant to decomposition reaction	1.0	–	0.73	Spot Area (α-fucosidase; time course 2.0 min after addition of α-fucosidase): 0.44 cm^2
CCCCCCCCCCCCC/C=C/[C@@H](O)[C@H](CO[C@@H]1O[C@H](CO)[C@@H](O[C@@H]2O[C@H](CO)[C@H](O)[C@H](O[C@@H]3O[C@H](CO)[C@@H](O[C@@H]4O[C@H](CO)[C@H](O)[C@H](O[C@]5(C(=O)O)C[C@H](O)[C@@H](NC(C)=O)[C@H]([C@H](O)[C@H](O)CO)O5)[C@H]4O)[C@H](O[C@@H]4O[C@@H](C)[C@@H](O)[C@@H](O)[C@@H]4O)[C@H]3NC(C)=O)[C@H]2O)[C@H](O)[C@H]1O)NC(=O)CCCCCCCCCCCCCCCCC [Comparative Example 1]	rapid decomposition	1.0	0.0	–	–
